Results as given in US10112941B2, “Tricyclic compounds as anticancer agents” (BRISTOL-MYERS SQUIBB COMPANY, priority 2013, dated 2018).
pIC50: −log10 of the molar value. Like-named read-outs stand apart in the source and are kept apart here.

Molecular target: BRD4 (Homo sapiens, UniProt O60885)
Assay: Time Resolved Fluorescence Resonance Energy Transfer (TR-FRET) binding assay, BRD4
Details: one of the FRET assays described; for pIC50: read-out: FRET BRD4 IC50

SMILES | pIC50 | IC50 (FRET BRD4 IC50 (nM)) [nM]
Cc1nnn(C)c1-c1cnc2c3ccc(S(C)(=O)=O)cc3n(C(c3ccccc3)C3CCC(F)(F)CC3)c2c1 (single isomer, unassigned) [Example 157, 5-{5-[(4,4-Difluorocyclohexyl)(phenyl)methyl]-7-methanesulfonyl-5H-pyrido[3,2-b]indol-3-yl}-1,4-dimethyl-1H-1,2,3-triazole] | > 8.30 | –
Cc1noc(C)c1-c1cnc2c3ccc(C(C)(C)O)cc3n(C(c3ccccc3)C3CCOCC3)c2c1 (single isomer, unassigned) [Example 2, 2-[3-(Dimethyl-1,2-oxazol-4-yl)-5-[oxan-4-yl(phenyl)methyl]-5H-pyrido[3,2-b]indol-7-yl]propan-2-ol] | > 8.30 | –
Cc1noc(C)c1-c1cnc2c3ccc(C(C)(C)O)cc3n(C(C3CCC3)C3CCC3)c2c1 [Example 31, 2-[5-(Dicyclobutylmethyl)-3-(dimethyl-1,2-oxazol-4-yl)-5H-pyrido[3,2-b]indol-7-yl]propan-2-ol] | > 8.30 | –
[2H]C([2H])([2H])c1onc(C)c1-c1cnc2c3ccc(C(C)(C)O)cc3n([C@H](c3ccc(F)cc3)C3CCOCC3)c2c1 [Example 284, 2-{5-[(S)-(4-Fluorophenyl)(oxan-4-yl)methyl]-3-[5-(^2H3)methyl-3-methyl-1,2-oxazol-4-yl]-5H-pyrido[3,2-b]indol-7-yl}propan-2-ol] | – | < 5
Cc1noc(C)c1-c1cnc2c3ccc(C(C)(C)O)cc3n(C(CCC(F)(F)F)c3cocn3)c2c1 (single isomer, unassigned) [Example 34, 2-[3-(Dimethyl-1,2-oxazol-4-yl)-5-[4,4,4-trifluoro-1-(1,3-oxazol-4-yl)butyl]-5H-pyrido[3,2-b]indol-7-yl]propan-2-ol] | > 8.30 | –
[2H]C([2H])([2H])c1nnn(C)c1-c1cnc2c3ccc(C(C)(C)O)cc3n(C(c3ncccc3F)C3CCOCC3)c2c1 (single isomer, unassigned) [Example 315] | > 8.30 | –
Cc1nnn(C)c1-c1cnc2c3ccc(C(C)(C)O)cc3n([C@@H](c3ccccc3F)C3CCOCC3)c2c1 [Example 93, 2-[3-(dimethyl-1H-1,2,3-triazol-5-yl)-5-[(R)-oxan-4-yl(2-fluorophenyl)(^2H)methyl]-5H-pyrido[3,2-b]indol-7-yl]propan-2-ol] | > 8.30 | –
Cc1nnn(C)c1-c1cnc2c3ccc(S(C)(=O)=O)cc3n(C(c3ccccc3)C3CCC(F)(F)CC3)c2c1 (single isomer, unassigned) [Example 156, 5-{5-[(4,4-Difluorocyclohexyl)(phenyl)methyl]-7-methanesulfonyl-5H-pyrido[3,2-b]indol-3-yl}-1,4-dimethyl-1H-1,2,3-triazole] | > 8.30 | –
[2H]C([2H])([2H])c1onc(C)c1-c1cnc2c3ccc(C(C)(C)O)cc3n([C@H](c3ccccc3)C3CCOCC3)c2c1 [Example 192, 2-{3-[5-(^2H3)Methyl-3-methyl-1,2-oxazol-4-yl]-5-[(S)-oxan-4-yl(phenyl)methyl]-5H-pyrido[3,2-b]indol-7-yl}propan-2-ol] | > 8.30 | –
Cc1noc(C)c1-c1cnc2c3ccccc3n(Cc3ccccc3)c2c1 [Example 51, 4-(5-Benzyl-5H-pyrido[3,2-b]indol-3-yl)-3,5-dimethyl-1,2-oxazole] | > 5.82 | –
Cc1nnn(C)c1-c1cnc2c3c(S(C)(=O)=O)cccc3n(C(c3c(F)cc(F)cc3F)C3CCOCC3)c2c1 (single isomer, unassigned) [Example 118, 5-{9-Methanesulfonyl-5-[oxan-4-yl(2,4,6-trifluorophenyl)methyl]-5H-pyrido[3,2-b]indol-3-yl}-1,4-dimethyl-1H-1,2,3-triazole] | > 8.30 | –
Cc1nnn(C)c1-c1cnc2c3c(F)cc(C(C)(C)O)cc3n(C(c3c(F)cc(F)cc3F)C3CCOCC3)c2c1 (single isomer, unassigned) [Example 105, 2-[3-(Dimethyl-1H-1,2,3-triazol-5-yl)-9-fluoro-5-[oxan-4-yl(2,4,6-trifluorophenyl)methyl]-5H-pyrido[3,2-b]indol-7-yl]propan-2-ol] | > 8.30 | –
[2H]C([2H])([2H])c1nnn(C)c1-c1cnc2c3ccc(C(C)(C)O)cc3n(C(c3ccc(Cl)cn3)C3CCOCC3)c2c1 (single isomer, unassigned) [Example 320] | > 8.30 | –
[2H]C([2H])([2H])c1nnn(C)c1-c1cnc2c3ccc(C(C)(C)O)c(F)c3n(C(c3ncccc3F)C3CCOCC3)c2c1 (single isomer, unassigned) [Example 458] | > 8.30 | –
Cc1noc(C)c1-c1cnc2c3ccc(C(C)(C)O)cc3n(C(CCC(F)(F)F)c3cocn3)c2c1 (single isomer, unassigned) [Example 35, 2-[3-(Dimethyl-1,2-oxazol-4-yl)-5-[4,4,4-trifluoro-1-(1,3-oxazol-4-yl)butyl]-5H-pyrido[3,2-b]indol-7-yl]propan-2-ol] | > 7.60 | –
Cc1nnn(C)c1-c1cnc2c3c(NS(C)(=O)=O)ccc(S(C)(=O)=O)c3n([C@H](c3ccccc3)C3CCOCC3)c2c1 [Example 216, N-[3-(dimethyl-1H-1,2,3-triazol-5-yl)-6-methanesulfonyl-5-[(S)-oxan-4-yl(phenyl)methyl]-5H-pyrido[3,2-b]indol-9-yl]methanesulfonamide] | > 8.30 | –

SMILES | pIC50 | IC50 (FRET BRD4 IC50 (nM)) [nM]
[2H]C([2H])([2H])c1nnn(C)c1-c1cnc2c3c(N)ccc(S(C)(=O)=O)c3n([C@H](c3ccccc3)C3CCOCC3)c2c1 [Example 227, 6-Methanesulfonyl-3-[4-(^2H3)methyl-1-methyl-1H-1,2,3-triazol-5-yl]-5-[(S)-oxan-4-yl(phenyl)methyl]-5H-pyrido[3,2-b]indol-9-amine] | > 8.30 | –
COc1cc(F)c(C(C2CCOCC2)n2c3cc(C(C)(C)O)ccc3c3ncc(-c4c(C)nnn4C)cc32)cc1F (single isomer, unassigned) [Example 123, 2-{5-[(2,5-Difluoro-4-methoxyphenyl)(oxan-4-yl)methyl]-3-(dimethyl-1H-1,2,3-triazol-5-yl)-5H-pyrido[3,2-b]indol-7-yl}propan-2-ol] | > 8.30 | –
Cc1nnn(C)c1-c1cnc2c3ccc(C(C)(C)O)cc3n(C(c3ccc(Cl)cc3)C3CCOCC3)c2c1 (single isomer, unassigned) [Example 398] | > 8.30 | –
Cc1noc(C)c1-c1cnc2c3ccc(C(C)(C)O)cc3n(C(c3c(F)cc(F)cc3F)C3CCOCC3)c2c1 (single isomer, unassigned) [Example 127, 2-[3-(Dimethyl-1,2-oxazol-4-yl)-5-[oxan-4-yl(2,4,6-trifluorophenyl)methyl]-5H-pyrido[3,2-b]indol-7-yl]propan-2-ol] | > 8.30 | –
Cc1nnn(C)c1-c1cnc2c3ccc(C(C)(C)O)c(F)c3n(C(c3ccncc3F)C3CCOCC3)c2c1 (single isomer, unassigned) [Example 288] | > 8.30 | –
COc1cc(C(C)(C)O)cc2c1c1ncc(-c3c(C)nnn3C)cc1n2C(c1ccccc1F)C1CCOCC1 (single isomer, unassigned) [Example 138, 2-[3-(Dimethyl-1H-1,2,3-triazol-5-yl)-5-[(2-fluorophenyl)(oxan-4-yl)methyl]-9-methoxy-5H-pyrido[3,2-b]indol-7-yl]propan-2-ol] | > 8.30 | –
Cc1nnn(C)c1-c1cnc2c3ccc(C(C)(C)O)cc3n(C(c3cccc(Cl)c3)C3CCOCC3)c2c1 (single isomer, unassigned) [Example 401] | > 8.30 | –
[2H]C([2H])([2H])c1nnn(C)c1-c1cnc2c3cc(F)c(C(C)(C)O)cc3n([C@H](c3ccc(F)cc3)C3CCOCC3)c2c1 [Example 277, 2-{8-Fluoro-5-[(S)-(4-fluorophenyl)(oxan-4-yl)methyl]-3-[4-(^2H3)methyl-1-methyl-1H-1,2,3-triazol-5-yl]-5H-pyrido[3,2-b]indol-7-yl}propan-2-ol] | > 8.30 | –
[2H]C([2H])([2H])c1nnn(C)c1-c1cnc2c3ccc(S(C)(=O)=O)cc3n(C(c3ncccc3F)C3CCC(F)(F)CC3)c2c1 (centres unmarked) [Example 240, 2-[(4,4-Difluorocyclohexyl)({7-methanesulfonyl-3-[4-(^2H3)methyl-1-methyl-1H-1,2,3-triazol-5-yl]-5H-pyrido[3,2-b]indol-5-yl})methyl]-3-fluoropyridine] | > 8.30 | –
Cc1nnn(C)c1-c1cnc2c3ccc(C(C)(C)F)c(F)c3n([C@H](c3ccccc3)C3CCOCC3)c2c1 [Example 352, 5-[6-Fluoro-7-(2-fluoropropan-2-yl)-5-[(S)-oxan-4-yl(phenyl)methyl]-5H-pyrido[3,2-b]indol-3-yl]-1,4-dimethyl-1H-1,2,3-triazole] | > 7.60 | –
CC(=O)NC(C)(C)c1ccc2c3ncc(-c4c(C)nnn4C)cc3n([C@H](c3ccccc3)C3CCOCC3)c2c1F [Example 462, N-{2-[3-(Dimethyl-1H-1,2,3-triazol-5-yl)-6-fluoro-5-[(S)-oxan-4-yl(phenyl)methyl]-5H-pyrido[3,2-b]indol-7-yl]propan-2-yl}acetamide] | > 8.30 | –
Cc1nnn(C)c1-c1cnc2c3ccc(C(C)(C)O)cc3n(C(c3ncccc3Cl)C3CCOCC3)c2c1 (single isomer, unassigned) [Example 304] | > 8.30 | –
Cc1nnn(C)c1-c1cnc2c3ccc(C(C)(C)O)cc3n(C(c3cccc(Cl)c3)C3CCOCC3)c2c1 (single isomer, unassigned) [Example 400] | > 8.30 | –
Cc1nnn(C)c1-c1cnc2c3ccc(C(C)(C)O)cc3n(C(c3cc(F)ccc3F)C3CCOCC3)c2c1 (single isomer, unassigned) [Example 132, 2-{5-[(2,5-Difluorophenyl)(oxan-4-yl)methyl]-3-(dimethyl-1H-1,2,3-triazol-5-yl)-5H-pyrido[3,2-b]indol-7-yl}propan-2-ol] | > 8.30 | –
COC(=O)Nc1ccc2c3ncc(-c4c(C)nnn4C)cc3n([C@H](c3ccccc3)C3CCOCC3)c2c1 [Example 365, Methyl N-[3-(dimethyl-1H-1,2,3-triazol-5-yl)-5-[(S)-oxan-4-yl(phenyl)methyl]-5H-pyrido[3,2-b]indol-7-yl]carbamate] | > 8.30 | –
[2H]C([2H])([2H])c1nnn(C)c1-c1cnc2c3ccc(C(C)(C)O)cc3n([C@H](c3ccccc3)C3CCOCC3)c2c1 [Example 262, 2-{3-[4-(^2H3)Methyl-1-methyl-1H-1,2,3-triazol-5-yl]-5-[(S)-oxan-4-yl(phenyl)methyl]-5H-pyrido[3,2-b]indol-7-yl}propan-2-ol] | > 8.30 | –
